Data published in PubChem BioAssay AID2060612 (Molecular Pharmacology Branch, DTP, NCI, 2025).
Several values for one entry are separate records, joined by “and”; a condition that tells them apart may be missing. Identical values can stand only once.

System: 565232-114-T-J1-PDC complex spheroid viability
Test: Anticancer human tumor 565232-114-T-J1-PDC patient-derived bladder carcinoma cell line growth inhibition [CLK]
Details: for viability, T/C: stronger effect = lower value
Procedure, shortened: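 Patient-derived tumor cells grown as complex spheroids with HUVEC endothelial cells and mesenchymal stem cells, treated with drug combinations. Concentrations descend in half-log steps from near clinical Cmax, or from 10 microM if Cmax unknown.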

[1] = curve of first compound, second compound 0.0316 µM
[2] = curve of first compound, second compound 0.1 µM
[3] = curve of first compound, second compound 0.316 µM
[4] = curve of first compound, second compound 1 µM
[5] = curve of first compound, second compound 3.16 µM
[6] = curve of first compound, second compound 10 µM
[7] = second compound 0.0316 µM, first compound 0.0316 µM
[8] = second compound 0.0316 µM, first compound 0.1 µM
[9] = second compound 0.0316 µM, first compound 0.316 µM
[10] = second compound 0.0316 µM, first compound 1 µM
[11] = second compound 0.0316 µM, first compound 3.16 µM
[12] = second compound 0.0316 µM, first compound 10 µM
[13] = second compound 0.1 µM, first compound 0.0316 µM
[14] = second compound 0.1 µM, first compound 0.1 µM
[15] = second compound 0.1 µM, first compound 0.316 µM
[16] = second compound 0.1 µM, first compound 1 µM
[17] = second compound 0.1 µM, first compound 3.16 µM
[18] = second compound 0.1 µM, first compound 10 µM
[19] = second compound 0.316 µM, first compound 0.0316 µM
[20] = second compound 0.316 µM, first compound 0.1 µM
[21] = second compound 0.316 µM, first compound 0.316 µM
[22] = second compound 0.316 µM, first compound 1 µM
[23] = second compound 0.316 µM, first compound 3.16 µM
[24] = second compound 0.316 µM, first compound 10 µM
[25] = second compound 1 µM, first compound 0.0316 µM
[26] = second compound 1 µM, first compound 0.1 µM
[27] = second compound 1 µM, first compound 0.316 µM
[28] = second compound 1 µM, first compound 1 µM
[29] = second compound 1 µM, first compound 3.16 µM
[30] = second compound 1 µM, first compound 10 µM
[31] = second compound 3.16 µM, first compound 0.0316 µM
[32] = second compound 3.16 µM, first compound 0.1 µM
[33] = second compound 3.16 µM, first compound 0.316 µM
[34] = second compound 3.16 µM, first compound 1 µM
[35] = second compound 3.16 µM, first compound 3.16 µM
[36] = second compound 3.16 µM, first compound 10 µM
[37] = second compound 10 µM, first compound 0.0316 µM
[38] = second compound 10 µM, first compound 0.1 µM
[39] = second compound 10 µM, first compound 0.316 µM
[40] = second compound 10 µM, first compound 1 µM
[41] = second compound 10 µM, first compound 3.16 µM
[42] = second compound 10 µM, first compound 10 µM
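Note: spheroids exposed to compounds for 7 days before readout.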
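Throughout, for viability, T/C: 100% = DMSO vehicle wells with luminescence normalized to vehicle control.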

C#Cc1c(F)ccc2cc(O)cc(-c3ncc4c(N5CC6CCC(C5)N6)nc(OCC56CCCN5CC(F)C6)nc4c3F)c12 (stereo not given) + CN1CCN(c2cc(C(=O)Nc3cc4cc(-c5cnn(C)c5)ccc4cn3)ccn2)CC1
IC50 [1]: > 10000 nM
IC50 [2]: > 10000 nM
IC50 [3]: < 31.6 nM
IC50 [4]: < 31.6 nM
IC50 [5]: < 31.6 nM
IC50 [6]: < 31.6 nM
viability, T/C [7]: 104%
viability, T/C [8]: 75.3%
viability, T/C [9]: 106%
viability, T/C [10]: 113%
viability, T/C [11]: 93.2%
viability, T/C [12]: 101%
viability, T/C [13]: 96.8%
viability, T/C [14]: 76.8%
viability, T/C [15]: 102%
viability, T/C [16]: 86%
viability, T/C [17]: 101%
viability, T/C [18]: 107%
viability, T/C [19]: 25%
viability, T/C [20]: 29.1%
viability, T/C [21]: 26.9%
viability, T/C [22]: 28.1%
viability, T/C [23]: 21.8%
viability, T/C [24]: 21.1%
viability, T/C [25]: 0.26%
viability, T/C [26]: 0.25%
viability, T/C [27]: 0.72%
viability, T/C [28]: 0.3%
viability, T/C [29]: 1.23%
viability, T/C [30]: 0.75%
viability, T/C [31]: 0.23%
viability, T/C [32]: 3.14%
viability, T/C [33]: 0.23%
viability, T/C [34]: 0.18%
viability, T/C [35]: 2.07%
viability, T/C [36]: 0.17%
viability, T/C [37]: 0.21%
viability, T/C [38]: 1.2%
viability, T/C [39]: 2.26%
viability, T/C [40]: 0.7%
viability, T/C [41]: 3.78%
viability, T/C [42]: 0.83%

C#Cc1c(F)ccc2cc(O)cc(-c3ncc4c(N5CC6CCC(C5)N6)nc(OCC56CCCN5CC(F)C6)nc4c3F)c12 (stereo not given)
viability, T/C (compound 0.0316 µM): 106% and 77.8%
viability, T/C (compound 0.1 µM): 92.2% and 83.3%
viability, T/C (compound 0.316 µM): 103% and 102%
viability, T/C (compound 1 µM): 93.2% and 110%
viability, T/C (compound 3.16 µM): 98.7% and 94.8%
viability, T/C (compound 10 µM): 93% and 95.2%
IC50 (curve of compound): > 10000 nM

CCCS(=O)(=O)Nc1ccc(F)c(C(=O)c2c[nH]c3ncc(-c4ccc(Cl)cc4)cc23)c1F
viability, T/C (compound 0.0316 µM): 81.4%
viability, T/C (compound 0.1 µM): 88.2%
viability, T/C (compound 0.316 µM): 101%
viability, T/C (compound 1 µM): 104%
viability, T/C (compound 3.16 µM): 113%
viability, T/C (compound 10 µM): 21.5%
IC50 (curve of compound): 6490 nM

O=C(c1cc(Cc2n[nH]c(=O)c3ccccc23)ccc1F)N1CCN(C(=O)C2CC2)CC1 + CNC(=O)c1ccc(Nc2nc(OC3CCCC3)c3c(-c4ccc5nc(C)oc5c4)c[nH]c3n2)c(OC)c1
IC50 [1]: > 10000 nM
IC50 [2]: 1500 nM
IC50 [3]: < 31.6 nM
IC50 [4]: < 31.6 nM
IC50 [5]: < 31.6 nM
IC50 [6]: < 31.6 nM
viability, T/C [7]: 81.7%
viability, T/C [8]: 85.9%
viability, T/C [9]: 87.8%
viability, T/C [10]: 82.8%
viability, T/C [11]: 104%
viability, T/C [12]: 64.8%
viability, T/C [13]: 49%
viability, T/C [14]: 52.6%
viability, T/C [15]: 63.5%
viability, T/C [16]: 48.8%
viability, T/C [17]: 45.7%
viability, T/C [18]: 34%
viability, T/C [19]: 36.4%
viability, T/C [20]: 40.3%
viability, T/C [21]: 30.4%
viability, T/C [22]: 32.4%
viability, T/C [23]: 33.4%
viability, T/C [24]: 30.2%
viability, T/C [25]: 24%
viability, T/C [26]: 26.8%
viability, T/C [27]: 23.2%
viability, T/C [28]: 22.8%
viability, T/C [29]: 27.1%
viability, T/C [30]: 24.8%
viability, T/C [31]: 22.5%
viability, T/C [32]: 23.4%
viability, T/C [33]: 21.3%
viability, T/C [34]: 21.7%
viability, T/C [35]: 22.4%
viability, T/C [36]: 19.3%
viability, T/C [37]: 23.2%
viability, T/C [38]: 25.5%
viability, T/C [39]: 16.5%
viability, T/C [40]: 22.3%
viability, T/C [41]: 21%
viability, T/C [42]: 18.2%

CC(=O)O[C@H]1C(=O)[C@@]2(C)[C@H]([C@H](OC(=O)c3ccccc3)[C@]3(O)C[C@H](OC(=O)[C@H](O)[C@@H](NC(=O)c4ccccc4)c4ccccc4)C(C)=C1C3(C)C)[C@]1(OC(C)=O)CO[C@@H]1C[C@@H]2O + CNC(=O)c1ccc(Nc2nc(OC3CCCC3)c3c(-c4ccc5nc(C)oc5c4)c[nH]c3n2)c(OC)c1
IC50 [1]: < 31.6 nM
IC50 [2]: < 31.6 nM
IC50 [3]: < 31.6 nM
IC50 [4]: < 31.6 nM
IC50 [5]: < 31.6 nM
IC50 [6]: < 31.6 nM
viability, T/C [7]: 24.3%
viability, T/C [8]: 9.42%
viability, T/C [9]: 9.43%
viability, T/C [10]: 10%
viability, T/C [11]: 13.3%
viability, T/C [12]: 16.3%
viability, T/C [13]: 37.8%
viability, T/C [14]: 32.8%
viability, T/C [15]: 35.9%
viability, T/C [16]: 29.6%
viability, T/C [17]: 43.8%
viability, T/C [18]: 42.9%
viability, T/C [19]: 31.6%
viability, T/C [20]: 38%
viability, T/C [21]: 38.3%
viability, T/C [22]: 46.9%
viability, T/C [23]: 51%
viability, T/C [24]: 46.5%
viability, T/C [25]: 22.9%
viability, T/C [26]: 30.6%
viability, T/C [27]: 30.7%
viability, T/C [28]: 41.2%
viability, T/C [29]: 41.4%
viability, T/C [30]: 36.1%
viability, T/C [31]: 24.4%
viability, T/C [32]: 25.5%
viability, T/C [33]: 25.1%
viability, T/C [34]: 29.9%
viability, T/C [35]: 26.6%
viability, T/C [36]: 29%
viability, T/C [37]: 20.4%
viability, T/C [38]: 22.3%
viability, T/C [39]: 29.6%
viability, T/C [40]: 28.1%
viability, T/C [41]: 30.5%
viability, T/C [42]: 27.7%
